# Source: patent US5270182A, “Antibiotic compounds and their production” (Hoechst Aktiengesellschaft, priority 1991, dated 1993)
# Experiments:
# Staph. aureus 706 = assay: MIC, agar-dilution method in Mueller-Hinton agar; assay type: cell-based; conditions: Staphylococcus aureus, methicillin resistant
# Description: (§1) Compound M901809 and its acid hydrolysis product M901809H are active against gram-positive bacteria.
# (§2) Strains 5 to 26 are methicillin resistant staphylococci.
# Staph. epidermidis 291 = assay: MIC, agar-dilution method in Mueller-Hinton agar; assay type: cell-based; conditions: Staphylococcus epidermidis, methicillin resistant
# Description: as §1, §2
# Staph. epidermidis 2 Tub = assay: MIC, agar-dilution method in Mueller-Hinton agar; assay type: cell-based; conditions: Staphylococcus epidermidis, methicillin resistant
# Description: as §1, §2
# Staph. aureus 690 = assay: MIC, agar-dilution method in Mueller-Hinton agar; assay type: cell-based; conditions: Staphylococcus aureus, methicillin resistant
# Description: as §1, §2
# Staph. aureus E 88 = assay: MIC, agar-dilution method in Mueller-Hinton agar; assay type: cell-based; conditions: Staphylococcus aureus, E88, methicillin resistant
# Description: as §1, §2
# Staph. haemolyticus 712 = assay: MIC, agar-dilution method in Mueller-Hinton agar; assay type: cell-based; conditions: Staphylococcus haemolyticus
# Description: as §1, §2
# Staph. haemolyticus 809 = assay: MIC, agar-dilution method in Mueller-Hinton agar; assay type: cell-based; conditions: Staphylococcus haemolyticus
# Description: as §1, §2
# Staph. epidermidis 109 = assay: MIC, agar-dilution method in Mueller-Hinton agar; assay type: cell-based; conditions: Staphylococcus epidermidis, methicillin resistant
# Description: as §1, §2
# Staph. aureus 712 = assay: MIC, agar-dilution method in Mueller-Hinton agar; assay type: cell-based; conditions: Staphylococcus aureus, methicillin resistant
# Description: as §1, §2
# Staph. aureus 011UC5 = assay: MIC, agar-dilution method in Mueller-Hinton agar; assay type: cell-based; conditions: Staphylococcus aureus, methicillin resistant
# Description: as §1, §2
# Staph. aureus C 31153 = assay: MIC, agar-dilution method in Mueller-Hinton agar; assay type: cell-based; conditions: Staphylococcus aureus, C31153, methicillin resistant
# Description: as §1, §2
# Staph. aureus 789 = assay: MIC, agar-dilution method in Mueller-Hinton agar; assay type: cell-based; conditions: Staphylococcus aureus, methicillin resistant
# Description: as §1, §2
# Staph. aureus 694 = assay: MIC, agar-dilution method in Mueller-Hinton agar; assay type: cell-based; conditions: Staphylococcus aureus, methicillin resistant
# Description: as §1, §2
# Staph. aureus 710 = assay: MIC, agar-dilution method in Mueller-Hinton agar; assay type: cell-based; conditions: Staphylococcus aureus, methicillin resistant
# Description: as §1, §2
# Staph. aureus 722 = assay: MIC, agar-dilution method in Mueller-Hinton agar; assay type: cell-based; conditions: Staphylococcus aureus, methicillin resistant
# Description: as §1, §2
# Staph. epidermidis 607 = assay: MIC, agar-dilution method in Mueller-Hinton agar; assay type: cell-based; conditions: Staphylococcus epidermidis, methicillin resistant
# Description: as §1, §2
# Staph. epidermidis 178 = assay: MIC, agar-dilution method in Mueller-Hinton agar; assay type: cell-based; conditions: Staphylococcus epidermidis, methicillin resistant
# Description: as §1, §2
# Staph. aureus E 121 = assay: MIC, agar-dilution method in Mueller-Hinton agar; assay type: cell-based; conditions: Staphylococcus aureus, E121, methicillin resistant
# Description: as §1, §2
# Staph. aureus Co. 1 = assay: MIC, agar-dilution method in Mueller-Hinton agar; assay type: cell-based; conditions: Staphylococcus aureus, methicillin resistant
# Description: as §1, §2
# Staph. aureus 725 = assay: MIC, agar-dilution method in Mueller-Hinton agar; assay type: cell-based; conditions: Staphylococcus aureus, methicillin resistant
# Description: as §1, §2
# Staph. epidermidis 825 = assay: MIC, agar-dilution method in Mueller-Hinton agar; assay type: cell-based; conditions: Staphylococcus epidermidis, Teicoplanin resistant, methicillin resistant
# Description: as §1
# (§3) c = Teicoplanin resistant
# as §2
# Staph. epidermidis 823 = assay: MIC, agar-dilution method in Mueller-Hinton agar; assay type: cell-based; conditions: Staphylococcus epidermidis, Teicoplanin resistant, methicillin resistant
# Description: as §1, §3, §2
# staphylococci = assay: treatment of experimental animals infected with staphylococci; assay type: in vivo
# Solubility = assay type: physicochemical
# Ent. faecium van R1 = assay: MIC, agar-dilution method in Mueller-Hinton agar; assay type: cell-based; conditions: Enterococcus faecium, VANR1
# Description: as §1, §3
# d = Vancomycin resistant
# streptococci = assay: treatment of experimental animals infected with streptococci; assay type: in vivo
# gram-positive bacteria = assay: activity against gram-positive bacteria; assay type: cell-based
# Description: as §1
# Staph. aureus 20424 = assay: MIC, agar-dilution method in Mueller-Hinton agar; assay type: cell-based; conditions: Staphylococcus aureus, Erythromycin resistant
# Description: as §1
# a = Erythromycin resistant
# Staph. aureus 20240 = assay: MIC, agar-dilution method in Mueller-Hinton agar; assay type: cell-based; conditions: Staphylococcus aureus, lactam resistant
# Description: as §1
# Ent. faecalis 21777 = assay: MIC, agar-dilution method in Mueller-Hinton agar; assay type: cell-based; conditions: Enterococcus faecalis
# Description: as §1
# Staph. aureus 209 P = assay: MIC, agar-dilution method in Mueller-Hinton agar; assay type: cell-based; conditions: Staphylococcus aureus
# Description: as §1
# Ent. faecalis Eder = assay: MIC, agar-dilution method in Mueller-Hinton agar; assay type: cell-based; conditions: Enterococcus faecalis
# Description: as §1
# Ent. faecalis 734 = assay: MIC, agar-dilution method in Mueller-Hinton agar; assay type: cell-based; conditions: Enterococcus faecalis
# Description: as §1
# Staph. aureus 3066 = assay: MIC, agar-dilution method in Mueller-Hinton agar; assay type: cell-based; conditions: Staphylococcus aureus
# Description: as §1
# Ent. faecalis D 65 = assay: MIC, agar-dilution method in Mueller-Hinton agar; assay type: cell-based; conditions: Enterococcus faecalis, D65
# Description: as §1
# Ent. faecalis UD8b = assay: MIC, agar-dilution method in Mueller-Hinton agar; assay type: cell-based; conditions: Enterococcus faecalis
# Description: as §1
# Ent. faecalis 782 = assay: MIC, agar-dilution method in Mueller-Hinton agar; assay type: cell-based; conditions: Enterococcus faecalis
# Description: as §1
# Ent. faecalis 3903 = assay: MIC, agar-dilution method in Mueller-Hinton agar; assay type: cell-based; conditions: Enterococcus faecalis
# Description: as §1
# Ent. faecalis 26777 = assay: MIC, agar-dilution method in Mueller-Hinton agar; assay type: cell-based; conditions: Enterococcus faecalis
# Description: as §1
compound,measurement,setting,value
CCCC1Cc2cc3c(c(O)c2C(=O)O1)-c1c(c(OC)c2oc4c(OC5CC(O)C(OC6CC(O)C(OC7CC(OC)C(O)C(C)O7)C(C)O6)C(C)O5)ccc(O)c4c(=O)c2c1O)C(O)C3O (centres unmarked) [M901809],MIC,Staph. aureus 706,0.2 µg/mL
same,MIC,Staph. epidermidis 291,0.2 µg/mL
same,MIC,Staph. epidermidis 2 Tub,0.2 µg/mL
same,MIC,Staph. aureus 690,0.2 µg/mL
same,MIC,Staph. aureus E 88,0.2 µg/mL
same,MIC,Staph. haemolyticus 712,0.2 µg/mL
same,MIC,Staph. haemolyticus 809,0.4 µg/mL
same,MIC,Staph. epidermidis 109,0.4 µg/mL
same,MIC,Staph. aureus 712,0.2 µg/mL
same,MIC,Staph. aureus 011UC5,0.1 µg/mL
same,MIC,Staph. aureus C 31153,0.1 µg/mL
same,MIC,Staph. aureus 789,0.1 µg/mL
same,MIC,Staph. aureus 694,0.2 µg/mL
same,MIC,Staph. aureus 710,0.2 µg/mL
same,MIC,Staph. aureus 722,0.2 µg/mL
same,MIC,Staph. epidermidis 607,0.4 µg/mL
same,MIC,Staph. epidermidis 178,0.2 µg/mL
same,MIC,Staph. aureus E 121,0.2 µg/mL
same,MIC,Staph. aureus Co. 1,0.1 µg/mL
same,MIC,Staph. aureus 725,0.1 µg/mL
same,MIC,Staph. epidermidis 825,0.8 µg/mL
same,MIC,Staph. epidermidis 823,0.4 µg/mL
same,activity in treatment of infected experimental animals,staphylococci,active
same,Solubility,Solubility; in CH2Cl2,Very soluble
same,Solubility,Solubility; in CH3CN,Poor to moderate
same,Solubility,Solubility; in CHCl3,Very soluble
same,Solubility,Solubility; in DMSO,Very soluble
same,Solubility,Solubility; in H2O,Insoluble
same,Solubility,Solubility; in MeOH,Poor to moderate
same,Solubility,Solubility; in ethyl acetate,Poor to moderate
same,Solubility,Solubility; in hexane,Insoluble
same,Solubility,Solubility; in petroleum ether (40-60° C.),Insoluble
same,MIC,Ent. faecium van R1,1.6 µg/mL
same,activity in treatment of infected experimental animals,streptococci,active
same,activity against gram-positive bacteria,gram-positive bacteria,active
same,MIC,Staph. aureus 20424,0.2 µg/mL
same,MIC,Staph. aureus 20240,0.2 µg/mL
same,MIC,Ent. faecalis 21777,0.4 µg/mL
same,MIC,Staph. aureus 209 P,0.1 µg/mL
same,MIC,Ent. faecalis Eder,0.4 µg/mL
same,MIC,Ent. faecalis 734,0.4 µg/mL
same,MIC,Staph. aureus 3066,0.2 µg/mL
same,MIC,Ent. faecalis D 65,1.6 µg/mL
same,MIC,Ent. faecalis UD8b,0.8 µg/mL
same,MIC,Ent. faecalis 782,0.4 µg/mL
same,MIC,Ent. faecalis 3903,0.4 µg/mL
same,MIC,Ent. faecalis 26777,0.4 µg/mL
